{"source": "patent US8329187B2", "about": "“Compositions of spores of non pathogenic bacteria” (Neuroscienze Pharmaness S.C. A.R.L., priority 2009, dated 2012)", "origin": "cited, not measured here", "tested_on": "gastrointestinal transit", "settings": "shown in example 6 of EP 1,602,658", "data": [{"smiles": "Cc1c(C(=O)c2cccc3ccccc23)c2cccc3c2n1[C@H](CN1CCOCC1)CO3", "note": "[WIN 55.212-2]", "values": [{"measurement": "effect on gastrointestinal transit (constipating activity)", "result": "slackens the gastrointestinal transit"}]}]}
